Eight molecules from patent US12646011B2, “Methods and nutritional formulations to increase the efficacy and reduce the side effects of cancer treatment” (UNIVERSITY OF SOUTHERN CALIFORNIA, priority 2009, dated 2026) can be followed below.

A word on the mortality: it is the percentage killed.

Data set [1] has as its system breast cancer cells (4T1). In words: In vitro fasting (STS) and chemotherapy, MTT survival, 4T1. It counts as cell-based, murine. The following applies: for sensitization by serum from fasted mice: versus serum from mice fed ad lib, MTT. How it is done:
To model fasting in vitro, cancer cells were incubated in media containing serum collected from mice either fed ad lib or fasted for 48 hours. […] Because pronounced glucose and growth factor reduction (e.g., the 75% reduction in the growth factor IGF-I) are two key extracellular responses to fasting, cells were incubated in different glucose and serum concentrations based on blood glucose measurements from normally fed and fasted mice (FIG. 31), i.e., incubation in low glucose (0.5 g/L) with low serum (1% FBS), or normal glucose (1.0 and 2.0 g/L for human and murine cell lines respectively) with normal serum (10% FBS) for 24 hours before and also during drug treatment (FIG. 32).
4T1-luc murine breast cancer cells were purchased from SibIech (Brookfield, CT). B16-fluc murine melanoma cells were provided by Noah Craft (UCLA). GL26 murine glioma, U87-MG human glioblastoma cells were provided by Thomas Chen (USC). PC3 and 22RV1 human prostate cancer cells were provided by Pinchas Cohen (UCLA). MCF-7 and […] human breast cancer cells and HeLa human cervical cancer cells were provided by Amy Lee (USC). LOVO human colon cancer cells were provided by Darryl Shibata (USC). NXS2 and Neuro-2a murine neuroblastoma, human ACN and SH-SY5Y neuroblastoma, OVCAR human ovarian carcinoma, MZ-MEL human melanoma, A431 epidermoid carcinoma cells were routinely cultured in the Laboratory of Oncology of Gaslini Institute. 4T1 cells were stably transfected with LC3-GFP, which was a kind gift from Jae Jung at USC, for autophagy studies. All cells were routinely maintained in DMEM 10% FBS at 37° C., 5% CO2. To inhibit autophagy cells were treated with 5 μM chloroquine (CQ) for 48 hours during in vitro STS. To modulate HO-1 activity, 4T1 cells were treated with 10 μM hemin (Sigma) or 20 μM zinc protoporphyrin (ZnPP; Sigma) for 24 hours prior to and 24 hours during chemotherapy treatment.
In vitro chemotherapy was performed by treating cells in medium containing chemotherapy for 24 hours. Optimum drug doses were determined for each individual cell line. For in vivo studies, DXR was injected intravenously via lateral tail veins, and CP was injected intraperitoneally.
Cellular fasting was done by glucose and/or serum restriction which was based on blood glucose measurements in fasted and normally fed mice; the lower level approximated to 0.5 g/L. and the upper level to 2.0 g/L. For human cell lines, normal glucose was considered as 1.0 g/L. Cells were washed twice with PBS before changing to fasting medium.
Cytotoxicity was measured by the ability to reduce methylthiazolyldiphenyl-tetrazolium bromide (MTT). Briefly, MTT was prepared at 5 mg/ml in PBS, diluted to a final concentration of 0.5 mg/ml for assays, and incubated for 3-4 hours at 37° C. […] Survival was presented as percentage of MTT reduction level of treated cells to control cells. Absorbance was read at 570 nm using a microplate reader SpectraMax 250 (Molecular Devices) and SoftMax Pro 3.0 software (Molecular Devices).

For data set [2], the system named is 4T1 breast cancer. To be noted: two fasting cycles; 20 days after the last treatment.
Description: Short-term starvation (STS), or fasting, was achieved by complete food withdrawal for 48-60 hours with continued access to water. […] Fasting in the glioma model was applied only once due to the unusually rapid tumor growth in the control (ad lib, no chemotherapy) group.
To establish a subcutaneous cancer mouse model, 12 week-old female BALB/c, 12-week-old female and male C57BL/6 mice, and 7-week-old Nude mice were injected with 4T1 breast cancer cells, B16 melanoma and GL26 glioma cells, and ACN human neuroblastoma cells, respectively. For metastatic mouse models of cancer, 12-week-old female BALB/c, 12-week-old female and male C57BL/6 mice were injected intravenously via lateral tail veins with 2×105 4T1, B16, GL26 cells, respectively, and 6-week-old female A/J mice were injected via lateral tail veins with 2×105 NXS2, and 1×10^6 Neuro-2a cells. […] Body weights were determined periodically and tumor size was measured using a digital vernier caliper. Tumor volume was calculated using the following equation: tumor volume (mm3)=(length×width×height)×π/6, where the length, width and height are in mm.
Animals were fasted for a total of 48-60 hours by complete deprivation of food but with free access to water. […] Body weight was measured immediately before and after fasting.
Data set [3] deals with 4T1 breast cancer cells. To be noted: glucose 0.5 vs 2.0 g/L, 1% FBS.
Description: (§3) To determine the mechanisms responsible for this STS-dependent sensitization, the effect of low glucose on DNA single and double strand breaks in cancer cells exposed to chemotherapy by the comet assay was studied.
(§4) Cells were diluted to 10^5/ml in culture medium (DMEM/F12 with 10% FBS), and treated with 50 μM DXR for 1 hour at 37° C. Cells were then washed once with ice cold PBS and subject to CometAssay (Trevigen, Inc, Gaithersburg, MD) according to the manufacturer's recommended procedure. Comet images were acquired with a Nikon Eclipse TE300 fluorescent microscope and analyzed with the Comet Score software (TriTek Corp., ver1.5). 100-300 cells were scored for each genotype/treatment group.
Data set [4] is described as follows: Self-reported side effects after chemotherapy (CTC-based survey). It counts as in vivo, human. How it is done:
Ten cases are described in which patients diagnosed with a variety of malignancies have voluntarily fasted prior to (48-140 hours) and/or following (24-56 hours) chemotherapy. None of these 10 patients, who received an average of 4 cycles of chemotherapy in combination with fasting, reported significant side effects caused by the fasting itself other than hunger. Toxicity was graded based on the Common Toxicity Criteria (CTC) of the National Cancer Institute (NCI) and self-reported side-effects from five patients indicate that fasting may protect against fatigue, weakness, and gastrointestinal side effects.
Self-reported assessments of all 10 patients were obtained to evaluate the severity of the side effects experienced. Since many of the chemo toxic side effects are cumulative, survey data was compared, including all the combined fasting- and non-fasting associated chemotherapy side effects (FIG. 17A). Toxicity was graded based on the Common Toxicity Criteria of National Cancer Institute. Encouragingly, better self-reported health outcomes were addressed by all the patients even though chemo-fasting cycles were mostly carried out in the later portion of the therapy. Nausea, vomiting, diarrhea, abdominal cramps, and mouth sores were virtually absent from the reports of all 10 patients whenever chemo-fasting cycles were administered, whereas at least one of these symptoms was reported by 5 out of the 6 ad lib fed patients (FIG. 17A). The four patients that always fasted in combination with all the chemo-treatments reported low severity for the majority of the side effects (FIGS. 12, 13, 14, 16). Only mild weakness and hair loss were reported by multiple patients. For the 6 patients that received chemotherapy in association with both, fasting or ad lib diet, the severity of the self-reported side effects was determined by considering only the two closest cycle of chemotherapy in which the patient had fasted or not. There was a general and major reduction in the severity of many of the self-reported side effects in combination with fasting (FIG. 17B).

For data set [5], the system named is prostate adenocarcinoma. In words: PSA level, cases 3 and 7. It counts as in vivo, human. As to the method:
A person who was diagnosed in July of 2000 with bilateral prostate adenocarcinoma, Gleason score 7 and PSA level of 5.8 ng/ml. A prostatectomy performed in September of 2000 led to undetectable levels of PSA until January 2003 when it rose to 1.4 ng/ml. Leuprolide acetate together with bicalutamide and finasteride were prescribed. […] Different drugs including triptorelinpamoate, nilutamide, thalidomide, CP and ketoconazole were utilized to control the disease. In 2007 the patient's PSA level reached 9 ng/ml and new metastases were observed during a bone scan. […] After stopping the chemotherapy treatments, their PSA rose rapidly. DTX at 75 mg/m2 in a 3-weekly cycle was the regimen elected and once again the patient suffered significant side effects (FIG. 5). In June 2008, Chemotherapy stopped. The patient was enrolled in a phase III clinical trial with abiraterone acetate, a drug that can selectively block CYP17, a microsomal enzyme that catalyzes a series of reactions critical to nongonadal androgen biosynthesis (Derek Raghavan and Eric A. Klein J.C.O 2008). […] This time the patient opted to fast prior to chemotherapy. […] In agreement to the patient's experience, blood readouts were consistently stable and remained within normal range throughout the treatments (FIGS. 4A-G). During the last three cycles, besides fasting the patient applied testosterone (cream 1%) for five days prior to chemotherapy.
As a consequence the PSA level along with testosterone level increased dramatically.
A person who was diagnosed in July 1998 with prostate adenocarcinoma, Gleason score 8. […] In 1998, the patient received leuprolide acetate and bicalutamide for the first time. In September 1999, those drugs wore off and they were put on finasteride. […] They started the second cycle with leuprolide acetate and also received High Dose Rate (HDR) brachytherapy and external beam radiation with Intensity Modulated Radiation Therapy (IMRT). Complementary treatment with multiple drugs such as bicalutamide, triptorelinpamoate and nandrolone was applied in order to control the disease. However, their PSA level increased quickly each time the treatment was halted. […] The patient decided to fast 60-66 hours prior to and 8-24 hours followed chemotherapy (Table 3).

The test system of data set [6] is 17 different cancer cells. In words: STS sensitization panel of 17 cancer cell lines, MTT. It is filed as cell-based. To be noted: 0.5 g/L glucose, 1% FBS versus normal glucose, 10% FBS. How it is done: (§1) To model fasting in vitro, cancer cells were incubated in media containing serum collected from mice either fed ad lib or fasted for 48 hours. In agreement with results in mice, breast cancer cells (4T1) cultured in medium supplemented with serum from fasted mice were sensitized to both DXR and CP compared to the effect of incubation in serum from mice fed ad lib (FIG. 30). Because pronounced glucose and growth factor reduction (e.g., the 75% reduction in the growth factor IGF-I) are two key extracellular responses to fasting, cells were incubated in different glucose and serum concentrations based on blood glucose measurements from normally fed and fasted mice (FIG. 31), i.e., incubation in low glucose (0.5 g/L) with low serum (1% FBS), or normal glucose (1.0 and 2.0 g/L for human and murine cell lines respectively) with normal serum (10% FBS) for 24 hours before and also during drug treatment (FIG. 32). In agreement with the in vivo studies, glucose and serum restriction sensitized 15 out of 17 different cancer cells lines, including the murine melanoma (B16), glioma (GL26), and breast cancer (4T1) cells to DXR and/or CP (FIGS. 32-34). […]
(§2) Cytotoxicity was measured by the ability to reduce methylthiazolyldiphenyl-tetrazolium bromide (MTT). […] Absorbance was read at 570 nm using a microplate reader SpectraMax 250 (Molecular Devices) and SoftMax Pro 3.0 software (Molecular Devices).

Data set [7] deals with murine neuroblastoma (NXS2). In words: Metastatic mouse model of neuroblastoma NXS2, survival. It is filed as in vivo. The following applies: 16 mg/Kg.
For data set [8], the system named is GL26 glioma cells. In words: Comet assay, GL26. The following applies: glucose 0.5 vs 2.0 g/L, 1% FBS. It counts as cell-based, murine.
Description: as §3, §4
In data set [9] the test system is B16 melanoma cells. In words: Metastatic mouse model of melanoma. It is filed as in vivo. The source says: The effect of fasting on chemotherapy was studied in metastatic models generated by intravenous injections of murine breast cancer cells (4T1), melanoma cells (B16), and 2 neuroblastoma cell lines (NXS2 and Neuro-2a) in immunocompetent mice. Fasting potentiated chemotherapy and extended the survival of all mice models of metastatic cancer (FIGS. 24-28). In the metastatic model of melanoma, mice were sacrificed early to determine the effect of STS on metastases. […] For instance, lung metastases were found in 100% vs65% of mice that received DXR under normal feeding and fasting, respectively. In addition, unlike normally fed mice, metastases were not detected in the liver or spleen of fasted mice (FIG. 25).
Body weight was measured immediately before and after fasting.

Data set [10] relates to B16 melanoma cells. In words: Comet assay, B16. It is filed as cell-based, murine. The following applies: glucose 0.5 vs 2.0 g/L, 1% FBS.
Description: as §3, §4
Data set [11] has as its system melanoma (B16) cells. In words: In vitro fasting (STS) and chemotherapy, MTT survival, B16. It is filed as cell-based, murine. The following applies: rhIGF-I; glucose 0.5 vs 2.0 g/L, 1% FBS; DXR 16 μM. How it is done:
as §1, with “32).” for “32). In agreement with the in vivo studies, glucose and serum restriction sensitized 15 out of 17 different cancer cells lines, including the murine melanoma (B16), glioma (GL26), and breast cancer (4T1) cells to DXR and/or CP (FIGS. 32-34).”
In vitro chemotherapy was performed by treating cells in medium containing chemotherapy for 24 hours. Optimum drug doses were determined for each individual cell line. […]
as §2

[12] abbreviates: case 7, fasting 60-66 h prior, 8-24 h after.

On to `O=P1(N(CCCl)CCCl)NCCCO1` (stereo not shown) [CP, cyclophosphamide], for which the “sensitization by serum from fasted mice” value in data set [1] is “sensitized”. Besides, in data set [2], the “tumor size relative to CP treatment alone group” value was “less than half”. In addition, the “DNA damage when combined with STS” value in [3] is listed as “synergistically increased DNA damage”.
Turning to `CC(=O)O[C@@]12CO[C@@H]1C[C@H](O)[C@@]1(C)C(=O)[C@H](O)C3=C(C)[C@@H](OC(=O)[C@H](O)[C@@H](NC(=O)OC(C)(C)C)c4ccccc4)C[C@@](O)([C@@H](OC(=O)c4ccccc4)[C@H]21)C3(C)C` [DTX, docetaxel], the self-reported side effects result in [4] (case 3, 75 mg/m2 with fasting, versus previous ad-lib cycles) is “considerably lower side effects”; in data set [4] (case 3, chemotherapy cycles without fasting), “fatigue, weakness, metallic taste, dizziness, forgetfulness, short-term memory impairment and peripheral neuropathy”; in data set [4] (setting [12]), “almost non-existent except for mild vibratory sensation in their feet”. Further, the PSA level in [5] (case 3, 25 mg/m2 weekly, no fasting) is 40.6 ng/mL; in data set [5] (case 3, upon restarting chemo-fasting treatments, 75 mg/m2), “dropped immediately”. Besides, the “PSA after 3 cycles of chemotherapy with fasting” value in data set [5] (case 3, reduced from 34.2, testosterone cream 1% applied before chemotherapy) amounted to 6.43 ng/mL. In addition, the “PSA levels throughout the cycles” value in data set [5] (setting [12]) is reported as “consistent decreasing trend”.
For the molecule `COc1cccc2c1C(=O)c1c(O)c3c(c(O)c1C2=O)C[C@@](O)(C(=O)CO)C[C@@H]3O[C@H]1C[C@H](N)[C@H](O)[C@H](C)O1` [DXR, doxorubicin], the “cancer cell lines sensitized by STS” value in data set [6] is 15 out of 17. Besides, in data set [1], the “sensitization by serum from fasted mice” value is reported as “sensitized”. Further, in [7] (2 cycles of fasting), the “Long-term survival (over 180 days)” value turned out to be 42%. Moreover, the mortality in data set [7] (ad lib group) was 100%. The results for the “DNA damage when combined with STS” value in data set [8], in [8] (listed as doxorubicin) and in data set [10] were “synergistically increased DNA damage”, “additive” and “synergistically increased DNA damage”, respectively. The “metastases in the liver or spleen” value in data set [9] (fasted mice) is “not detected”. For the same molecule, the “mice with lung metastases” value in [9] (normal feeding) came out at 100%.
With `C=CC1=C(C)c2cc3[n-]c(cc4nc(cc5[n-]c(cc1n2)c(C)c5C=C)C(C)=C4CCC(=O)O)c(CCC(=O)O)c3C.[Zn+2]` [ZnPP, zinc protoporphyrin], the “sensitivity to chemotherapy (CP)” value in data set [1] (HO-1 inhibitor, 20 μM, 24 h before and 24 h during CP) is “sensitized cancer cells to chemotherapy”.
Regarding `CCN(CC)CCCC(C)Nc1ccnc2cc(Cl)ccc12` (stereo not shown) [chloroquine], in data set [1] (5 μM, 48 hours, glucose restriction in low serum), the “cell death on inhibition of autophagy during STS” value is “further increased cell death”.
Turning to “Bevacizumab: Bevacizumab added into the DTX treatment”, the PSA entry in [5] (case 3, added to weekly DTX treatment) was “dropped significantly”.
In the case of “IGF-I: rhIGF-I, growth factor added during glucose restriction”, the “effect on STS-dependent sensitization to DXR” value is on record as “reverses the sensitization” in data set [1] (rhIGF-I, glucose 0.5 vs 2.0 g/L, 1% FBS, DXR 16 μM) and “reverses the sensitization” in [11].
On to hemin, for which the “fasting-dependent sensitization to chemotherapy (CP)” value in data set [1] (HO-1 inducer, 10 μM, 24 h before and 24 h during CP) is “partially reversed”.
